Experimental data reported in ChEMBL document CHEMBL1201862, “PubChem BioAssay data set” (2004).
The source made the active and inactive calls.

Legend:
[1] = target: FAD-linked sulfhydryl oxidase ALR (Homo sapiens, UniProt P55789); assay: inhibitors of human ALR sulfhydryl oxidase, dose response, biochemical, H2O2 detection, luminescence, cherry-pick (AID 493248)
[2] = microbe, parasite or virus in culture; assay type: functional; details: Mycobacterium tuberculosis
[3] = target: T1, Ubiquitin-conjugating enzyme E2 N (Homo sapiens, UniProt P61088); assay type: functional;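 also: Dose-response confirmation in a TR-FRET assay detecting UBC13-driven polyubiquitin chain formation, inhibition measured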
T1 sequence (P61088 whole entry): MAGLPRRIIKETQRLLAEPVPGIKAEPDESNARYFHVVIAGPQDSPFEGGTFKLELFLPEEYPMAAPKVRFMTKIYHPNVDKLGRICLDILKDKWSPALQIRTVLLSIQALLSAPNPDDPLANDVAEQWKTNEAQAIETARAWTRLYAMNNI

[4] = target: Hepatocyte nuclear factor 4-alpha (Homo sapiens, UniProt P41235); assay type: functional, cell-based;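 also: biochemical luminescence-based dose-response counterscreen measuring inhibition of HNF4 dimerization, run alongside a screen for blockers of ABHD5–perilipin-5 interaction; split luciferase complementation of HNF4 fusion proteins in cell lysate measuring dimerization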
[5] = target: T2, DNA repair protein RAD52 homolog (Homo sapiens, UniProt P43351); assay type: functional, biochemical
T2 sequence (P43351 whole entry): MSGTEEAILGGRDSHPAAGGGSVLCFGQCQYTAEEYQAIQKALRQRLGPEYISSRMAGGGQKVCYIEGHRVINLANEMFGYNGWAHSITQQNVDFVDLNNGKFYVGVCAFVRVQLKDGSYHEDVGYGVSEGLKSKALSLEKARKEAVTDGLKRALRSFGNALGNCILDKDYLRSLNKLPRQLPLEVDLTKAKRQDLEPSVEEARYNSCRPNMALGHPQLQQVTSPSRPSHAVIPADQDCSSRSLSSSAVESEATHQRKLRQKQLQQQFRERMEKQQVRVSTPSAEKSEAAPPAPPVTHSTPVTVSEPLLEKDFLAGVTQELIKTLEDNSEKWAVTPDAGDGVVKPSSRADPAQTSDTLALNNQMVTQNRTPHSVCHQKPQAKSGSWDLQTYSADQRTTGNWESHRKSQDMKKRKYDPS

[6] = target: T3, Sentrin-specific protease 8 (Homo sapiens, UniProt Q96LD8); assay type: functional
T3 sequence (Q96LD8 whole entry): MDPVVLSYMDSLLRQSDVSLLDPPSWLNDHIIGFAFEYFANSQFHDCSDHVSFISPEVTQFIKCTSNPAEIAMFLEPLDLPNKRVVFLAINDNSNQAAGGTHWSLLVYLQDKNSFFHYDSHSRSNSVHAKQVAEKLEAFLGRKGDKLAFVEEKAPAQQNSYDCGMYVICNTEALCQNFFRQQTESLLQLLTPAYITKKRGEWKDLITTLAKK

[7] = target: T4, Caspase-3 (Homo sapiens, UniProt P42574); assay: Dose-response confirmation of uHTS inhibitor hits of Sentrin-Specific Protease 8 in a Caspase-3 Fluorescence assay.; assay type: functional
T4 sequence (P42574 whole entry): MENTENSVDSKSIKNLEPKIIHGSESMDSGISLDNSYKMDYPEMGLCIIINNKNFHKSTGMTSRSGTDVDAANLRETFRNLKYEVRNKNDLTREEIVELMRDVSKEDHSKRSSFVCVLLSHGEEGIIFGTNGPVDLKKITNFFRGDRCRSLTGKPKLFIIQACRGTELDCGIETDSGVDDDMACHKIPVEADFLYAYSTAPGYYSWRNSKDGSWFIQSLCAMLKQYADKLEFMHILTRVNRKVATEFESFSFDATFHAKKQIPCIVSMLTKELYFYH

[8] = target: T3, Sentrin-specific protease 8; assay type: functional; remark: listed apart in the source
[9] = target: Mu-type opioid receptor (Homo sapiens, UniProt P35372); assay type: functional, cell-based;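 also: U2OS cells with beta-arrestin recruitment to OPRM1 by beta-gal complementation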
[10] = target: 5-hydroxytryptamine receptor 2A (Mus musculus, UniProt P35363); assay type: functional, cell-based;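 also: CHO-K1 cells with tagged receptor and beta-arrestin; agonist potency measured as compound-induced activation of the receptor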
[11] = test system: HEK293; assay: cells; assay type: functional, cell-based; details: Homo sapiens
[12] = target: Dual specificity protein phosphatase 3 (Homo sapiens, UniProt P51452); assay: VHR phosphatase inhibition, dose response, selectivity assay for STEP inhibitor project, biochemical (AID 602374); assay type: functional; details: read-out: IC50_Mean
[13] = target: Glucose-6-phosphate 1-dehydrogenase (Homo sapiens, UniProt P11413); assay: human G6PD enzyme inhibitors, dose response, selectivity assay for P. falciparum G6PD inhibitor project, biochemical, fluorescence (AID 504792); assay type: functional
[14] = target: T5, Tyrosine-protein phosphatase non-receptor type 5 (Homo sapiens, UniProt P54829); assay: STEP phosphatase inhibitors, confirmation, biochemical, fluorescence intensity, uHTS hits (AID 602372); assay type: functional; details: read-out: IC50_Mean
T5 sequence (P54829 whole entry): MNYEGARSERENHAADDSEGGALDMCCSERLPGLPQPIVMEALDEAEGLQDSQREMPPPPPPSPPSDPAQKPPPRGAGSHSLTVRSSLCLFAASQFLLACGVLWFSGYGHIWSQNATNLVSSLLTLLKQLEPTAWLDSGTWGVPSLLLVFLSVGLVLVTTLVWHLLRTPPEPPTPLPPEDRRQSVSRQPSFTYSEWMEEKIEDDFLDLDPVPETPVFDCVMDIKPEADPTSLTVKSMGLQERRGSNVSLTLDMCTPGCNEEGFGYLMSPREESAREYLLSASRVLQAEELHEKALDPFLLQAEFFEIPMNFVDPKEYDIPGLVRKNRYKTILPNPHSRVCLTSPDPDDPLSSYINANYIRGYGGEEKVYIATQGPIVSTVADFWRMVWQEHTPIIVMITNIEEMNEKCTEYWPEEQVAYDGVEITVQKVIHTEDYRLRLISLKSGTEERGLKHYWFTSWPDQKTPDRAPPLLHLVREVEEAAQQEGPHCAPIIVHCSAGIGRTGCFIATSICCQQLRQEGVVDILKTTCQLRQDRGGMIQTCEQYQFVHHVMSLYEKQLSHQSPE

[15] = target: Tyrosine-protein phosphatase non-receptor type 22 (Homo sapiens, UniProt Q9Y2R2); assay: PTPN22 phosphatase inhibition, dose response, selectivity assay for STEP inhibitor project, biochemical (AID 624241); assay type: functional
[16] = target: T6, Nuclear receptor subfamily 0 group B member 1 (Homo sapiens, UniProt P51843); assay: Luminescence-based cell-based high throughput dose response assay for inhibitors of the orphan nuclear receptor subfamily 0, group B, member 1 (DAX1; NR0B1). [Related pubchem assays (depositor defined):AID504766, AID504790]; assay type: functional
T6 sequence (P51843 whole entry): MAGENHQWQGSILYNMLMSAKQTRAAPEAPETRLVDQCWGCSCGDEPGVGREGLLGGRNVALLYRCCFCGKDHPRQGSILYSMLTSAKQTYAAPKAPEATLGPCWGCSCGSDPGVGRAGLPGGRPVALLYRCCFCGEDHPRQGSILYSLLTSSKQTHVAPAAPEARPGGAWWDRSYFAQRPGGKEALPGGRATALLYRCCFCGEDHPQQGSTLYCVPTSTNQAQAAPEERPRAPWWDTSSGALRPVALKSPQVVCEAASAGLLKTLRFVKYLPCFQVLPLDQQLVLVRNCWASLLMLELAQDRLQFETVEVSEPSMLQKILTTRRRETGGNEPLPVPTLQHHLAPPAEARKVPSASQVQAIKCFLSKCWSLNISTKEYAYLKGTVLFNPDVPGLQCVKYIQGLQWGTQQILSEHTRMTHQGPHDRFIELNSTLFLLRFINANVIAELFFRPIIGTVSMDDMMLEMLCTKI

[17] = target: T7, Tyrosine-protein phosphatase non-receptor type 11 (Homo sapiens, UniProt Q06124); assay: SHP2 phosphatase inhibition, dose response, selectivity assay for STEP inhibitor project, biochemical (AID 602367); assay type: functional; details: read-out: IC50_Mean
T7 sequence (Q06124 whole entry): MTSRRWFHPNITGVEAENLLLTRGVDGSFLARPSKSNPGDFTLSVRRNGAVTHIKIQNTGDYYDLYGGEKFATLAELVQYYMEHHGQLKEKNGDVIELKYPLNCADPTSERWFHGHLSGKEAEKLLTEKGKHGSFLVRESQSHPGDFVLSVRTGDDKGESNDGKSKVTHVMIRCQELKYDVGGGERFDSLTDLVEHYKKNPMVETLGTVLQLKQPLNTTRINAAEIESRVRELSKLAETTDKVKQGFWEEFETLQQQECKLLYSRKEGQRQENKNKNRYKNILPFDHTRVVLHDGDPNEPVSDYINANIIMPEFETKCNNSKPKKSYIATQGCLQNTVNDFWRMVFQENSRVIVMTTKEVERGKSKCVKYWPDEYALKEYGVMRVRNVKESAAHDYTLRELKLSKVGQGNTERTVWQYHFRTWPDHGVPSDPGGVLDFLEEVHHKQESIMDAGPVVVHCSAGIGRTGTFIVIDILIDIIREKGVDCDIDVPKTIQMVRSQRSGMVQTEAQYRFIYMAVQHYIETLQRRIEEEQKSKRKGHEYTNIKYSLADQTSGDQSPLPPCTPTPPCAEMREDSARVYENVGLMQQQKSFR

[18] = target: Broad substrate specificity ATP-binding cassette transporter ABCG2 (Homo sapiens, UniProt Q9UNQ0); assay: ABCG2 efflux pump inhibitors, dose response, Ig-MXP3 cells, flow cytometry (AID 1690); assay type: functional
[19] = target: 72 kDa type IV collagenase (Homo sapiens, UniProt P08253); assay: Dose Response validation of uHTS RPN11 inhibitor hits using a MMP-2 Fluorescence assay.; assay type: functional
[20] = target: Prothrombin (Bos taurus, UniProt P00735); assay: thrombin inhibition, dose response, biochemical, fluorescence polarization, uHTS hits (AID 602369); assay type: functional
[21] = target: T8, Low molecular weight phosphotyrosine protein phosphatase (Homo sapiens, UniProt P24666); assay type: functional; details: read-out: IC50_Mean
T8 sequence (P24666 whole entry): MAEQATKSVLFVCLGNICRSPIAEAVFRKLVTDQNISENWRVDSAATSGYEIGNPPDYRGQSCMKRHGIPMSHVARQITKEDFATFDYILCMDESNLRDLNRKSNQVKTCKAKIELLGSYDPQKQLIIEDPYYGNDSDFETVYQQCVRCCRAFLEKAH

[22] = target: 26S proteasome non-ATPase regulatory subunit 14 (Homo sapiens, UniProt O00487); assay: inhibition of proteasome subunit RPN11 – biochemical, fluorescence polarization, uHTS hits, confirmation (AID 602368); assay type: functional
[23] = target: T8, Low molecular weight phosphotyrosine protein phosphatase; assay type: functional; details: read-out: IC50_Mean; remark: listed apart in the source
[24] = target: T9, Protein disulfide-isomerase (Homo sapiens, UniProt P07237); assay: PDI inhibitors, insulin aggregation turbidity, dose response, biochemical, absorbance, cherry-picked samples (AID 602350); assay type: functional
[25] = target: T9, Protein disulfide-isomerase; assay: PDI inhibitors, insulin turbidity readout, dose response, biochemical, absorbance, cherry-picked samples, set 2 (AID 624274); assay type: functional
[26] = target: T10, ATP-dependent translocase ABCB1 (Homo sapiens, UniProt P08183); assay: ABCB1 efflux inhibitor potency, dose response, Jurkat-DNR cells, JC-1, flow cytometry, set 2 (AID 504569); assay type: functional; details: read-out: EC50_MICROM_;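 also: potency of pump inhibitors that raise cellular JC-1 green fluorescence up to the nicardipine level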
[27] = target: T10, ATP-dependent translocase ABCB1; assay: ABCG2 efflux pump inhibitor potency, dose response, Ig-MXP3 cells, JC-1, flow cytometry, set 2 (AID 504566); assay type: functional; details: read-out: EC50_MICROM_;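 also: flow cytometry median green fluorescence of retained JC-1 dye; potency of efflux pump inhibition measured as rising substrate retention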
[28] = L. donovani amastigote growth inhibition, dose response, axenic amastigotes, plate reader, cherry pick (AID 651891); assay type: functional, cell-based; details: Leishmania donovani
[29] = cytotoxicity in L-6 rat myocytes, dose response, cytotoxicity control, cell-based, plate reader, cherry-pick (AID 651896); assay type: functional
[30] = Inhibition of Plasmodium falciparum NF54 Measured in Cell-Based System Using Plate Reader - 2138-11_Inhibitor_Dose_CherryPick_Activity.; assay type: functional
[31] = T. b. rhodesiense proliferation inhibition, dose response, STIB900 strain, plate reader, cherry pick (AID 651893); assay type: functional, cell-based; details: Trypanosoma brucei
[32] = Inhibition of T. cruzi Tulahuen strain amastigotes in L-6 muscle cells Measured in Cell-Based and Microorganism Combination System Using Plate Reader - 2138-03_Inhibitor_Dose_CherryPick_Activity.; assay type: functional; details: Rattus norvegicus, L6
[33] = intracellular Trypanosoma cruzi inhibitors in host cells – cell-based, plate reader, cherry-pick samples, set 3, dose response (AID 651818); assay type: functional;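 also: compounds incubated with infected cells for about four days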

T10 sequence (P08183 whole entry): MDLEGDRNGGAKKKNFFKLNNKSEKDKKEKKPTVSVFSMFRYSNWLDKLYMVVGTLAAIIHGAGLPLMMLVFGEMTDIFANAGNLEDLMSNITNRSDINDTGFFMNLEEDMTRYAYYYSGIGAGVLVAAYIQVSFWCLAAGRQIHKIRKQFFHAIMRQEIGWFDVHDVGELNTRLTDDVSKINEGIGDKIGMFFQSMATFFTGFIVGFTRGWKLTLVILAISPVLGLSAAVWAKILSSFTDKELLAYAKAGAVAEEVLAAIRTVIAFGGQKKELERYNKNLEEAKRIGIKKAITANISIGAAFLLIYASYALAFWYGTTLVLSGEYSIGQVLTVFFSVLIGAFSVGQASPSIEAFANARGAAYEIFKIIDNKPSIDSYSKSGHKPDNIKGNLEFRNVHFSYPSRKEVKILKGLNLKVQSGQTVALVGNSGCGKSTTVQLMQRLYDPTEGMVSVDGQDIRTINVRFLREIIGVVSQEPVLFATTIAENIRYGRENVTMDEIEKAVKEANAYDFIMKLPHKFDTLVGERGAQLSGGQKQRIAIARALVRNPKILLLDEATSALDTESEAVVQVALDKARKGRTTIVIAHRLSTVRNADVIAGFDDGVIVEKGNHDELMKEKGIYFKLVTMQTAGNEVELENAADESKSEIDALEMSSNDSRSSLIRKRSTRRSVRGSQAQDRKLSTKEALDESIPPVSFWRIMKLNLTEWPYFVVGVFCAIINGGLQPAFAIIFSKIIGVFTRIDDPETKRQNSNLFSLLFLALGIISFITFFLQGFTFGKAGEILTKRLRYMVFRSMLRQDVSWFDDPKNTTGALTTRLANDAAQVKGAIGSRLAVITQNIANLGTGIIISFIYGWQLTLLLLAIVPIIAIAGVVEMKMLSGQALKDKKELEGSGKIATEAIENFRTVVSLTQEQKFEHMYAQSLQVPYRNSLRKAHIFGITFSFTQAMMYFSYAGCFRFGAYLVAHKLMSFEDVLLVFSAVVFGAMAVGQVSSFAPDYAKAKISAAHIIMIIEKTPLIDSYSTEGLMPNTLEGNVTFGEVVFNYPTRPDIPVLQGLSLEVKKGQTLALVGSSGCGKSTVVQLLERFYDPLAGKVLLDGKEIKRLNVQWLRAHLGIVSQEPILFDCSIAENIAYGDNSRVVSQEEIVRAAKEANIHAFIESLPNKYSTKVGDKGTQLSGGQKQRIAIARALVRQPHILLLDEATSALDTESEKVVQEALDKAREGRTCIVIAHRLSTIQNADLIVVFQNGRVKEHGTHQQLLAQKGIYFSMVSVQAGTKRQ
T9 sequence (P07237 whole entry): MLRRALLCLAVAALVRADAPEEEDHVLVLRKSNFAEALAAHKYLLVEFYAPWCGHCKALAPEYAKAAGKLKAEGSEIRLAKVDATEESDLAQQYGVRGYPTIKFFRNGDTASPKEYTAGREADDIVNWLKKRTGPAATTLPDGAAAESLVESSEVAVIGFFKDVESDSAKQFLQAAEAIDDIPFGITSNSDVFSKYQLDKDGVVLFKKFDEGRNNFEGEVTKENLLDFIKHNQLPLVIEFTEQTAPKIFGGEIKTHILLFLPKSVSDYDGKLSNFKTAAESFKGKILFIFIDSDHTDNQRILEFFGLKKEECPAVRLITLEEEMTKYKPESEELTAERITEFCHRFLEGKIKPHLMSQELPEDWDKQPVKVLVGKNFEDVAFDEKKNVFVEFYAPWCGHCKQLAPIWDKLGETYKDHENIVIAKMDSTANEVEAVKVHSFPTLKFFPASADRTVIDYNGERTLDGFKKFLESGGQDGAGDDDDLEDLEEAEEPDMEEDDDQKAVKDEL
Tyrosine-protein phosphatase non-receptor type 22, sequence (Q9Y2R2 whole entry): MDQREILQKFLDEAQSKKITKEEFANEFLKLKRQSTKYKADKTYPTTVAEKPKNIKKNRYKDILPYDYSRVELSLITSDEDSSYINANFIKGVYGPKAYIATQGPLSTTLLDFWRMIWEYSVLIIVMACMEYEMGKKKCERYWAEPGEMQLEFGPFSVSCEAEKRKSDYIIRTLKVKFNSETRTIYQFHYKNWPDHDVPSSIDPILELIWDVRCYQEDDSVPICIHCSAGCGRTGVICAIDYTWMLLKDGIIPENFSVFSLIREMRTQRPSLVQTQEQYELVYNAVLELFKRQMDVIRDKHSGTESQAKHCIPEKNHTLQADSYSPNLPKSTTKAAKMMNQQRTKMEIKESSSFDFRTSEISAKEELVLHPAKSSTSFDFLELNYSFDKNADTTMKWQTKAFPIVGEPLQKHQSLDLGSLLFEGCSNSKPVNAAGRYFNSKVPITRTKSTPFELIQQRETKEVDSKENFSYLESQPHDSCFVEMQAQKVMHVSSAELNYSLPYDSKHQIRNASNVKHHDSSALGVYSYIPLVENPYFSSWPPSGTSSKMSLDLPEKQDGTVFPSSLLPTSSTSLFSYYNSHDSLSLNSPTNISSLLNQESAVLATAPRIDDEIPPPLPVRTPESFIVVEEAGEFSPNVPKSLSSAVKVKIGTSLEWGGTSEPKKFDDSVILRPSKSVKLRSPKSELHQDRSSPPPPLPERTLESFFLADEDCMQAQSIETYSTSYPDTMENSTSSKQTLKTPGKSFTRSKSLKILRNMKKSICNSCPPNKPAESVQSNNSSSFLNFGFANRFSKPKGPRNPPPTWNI
FAD-linked sulfhydryl oxidase ALR, sequence (P55789 whole entry): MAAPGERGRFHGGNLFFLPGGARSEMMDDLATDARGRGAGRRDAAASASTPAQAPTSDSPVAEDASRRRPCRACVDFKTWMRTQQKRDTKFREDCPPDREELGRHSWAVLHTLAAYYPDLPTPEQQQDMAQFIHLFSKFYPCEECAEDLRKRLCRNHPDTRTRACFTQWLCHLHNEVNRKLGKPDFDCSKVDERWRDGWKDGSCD
5-hydroxytryptamine receptor 2A, sequence (P35363 whole entry): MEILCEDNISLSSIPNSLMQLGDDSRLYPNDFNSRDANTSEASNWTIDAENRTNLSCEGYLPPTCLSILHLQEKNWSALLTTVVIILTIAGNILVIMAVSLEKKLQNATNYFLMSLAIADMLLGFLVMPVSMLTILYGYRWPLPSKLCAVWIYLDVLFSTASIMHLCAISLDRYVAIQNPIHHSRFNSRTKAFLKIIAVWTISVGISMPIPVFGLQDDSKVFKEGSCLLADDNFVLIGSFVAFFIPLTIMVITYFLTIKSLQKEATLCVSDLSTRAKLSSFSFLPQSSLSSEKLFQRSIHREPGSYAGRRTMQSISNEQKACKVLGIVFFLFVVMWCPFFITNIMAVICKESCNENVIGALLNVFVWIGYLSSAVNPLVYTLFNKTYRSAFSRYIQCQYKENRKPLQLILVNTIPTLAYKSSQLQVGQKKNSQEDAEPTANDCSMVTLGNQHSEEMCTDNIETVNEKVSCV
26S proteasome non-ATPase regulatory subunit 14, sequence (O00487 whole entry): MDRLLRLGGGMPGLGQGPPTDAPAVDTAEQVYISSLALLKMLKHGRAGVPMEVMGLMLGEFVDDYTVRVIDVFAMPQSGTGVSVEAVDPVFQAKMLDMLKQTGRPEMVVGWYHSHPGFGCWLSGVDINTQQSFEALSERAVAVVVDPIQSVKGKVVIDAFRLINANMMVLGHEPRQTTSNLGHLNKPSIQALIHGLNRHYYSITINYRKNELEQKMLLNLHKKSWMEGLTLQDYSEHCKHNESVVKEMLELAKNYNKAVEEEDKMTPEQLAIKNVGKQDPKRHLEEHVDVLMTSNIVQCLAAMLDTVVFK
Hepatocyte nuclear factor 4-alpha, sequence (P41235 whole entry, the tested form may be a part): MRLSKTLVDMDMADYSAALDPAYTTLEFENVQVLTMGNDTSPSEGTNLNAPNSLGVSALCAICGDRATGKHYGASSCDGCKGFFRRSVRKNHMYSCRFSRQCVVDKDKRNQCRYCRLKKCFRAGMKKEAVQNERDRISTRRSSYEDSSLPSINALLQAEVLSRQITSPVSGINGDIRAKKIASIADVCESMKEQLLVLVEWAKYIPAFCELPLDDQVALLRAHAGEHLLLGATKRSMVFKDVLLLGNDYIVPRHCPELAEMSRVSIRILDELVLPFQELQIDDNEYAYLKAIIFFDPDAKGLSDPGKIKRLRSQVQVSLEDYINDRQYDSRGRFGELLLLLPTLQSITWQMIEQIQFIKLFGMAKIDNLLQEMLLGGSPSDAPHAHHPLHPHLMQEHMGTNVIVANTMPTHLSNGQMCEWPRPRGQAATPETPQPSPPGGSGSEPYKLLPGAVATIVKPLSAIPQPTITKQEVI
72 kDa type IV collagenase, sequence (P08253 whole entry): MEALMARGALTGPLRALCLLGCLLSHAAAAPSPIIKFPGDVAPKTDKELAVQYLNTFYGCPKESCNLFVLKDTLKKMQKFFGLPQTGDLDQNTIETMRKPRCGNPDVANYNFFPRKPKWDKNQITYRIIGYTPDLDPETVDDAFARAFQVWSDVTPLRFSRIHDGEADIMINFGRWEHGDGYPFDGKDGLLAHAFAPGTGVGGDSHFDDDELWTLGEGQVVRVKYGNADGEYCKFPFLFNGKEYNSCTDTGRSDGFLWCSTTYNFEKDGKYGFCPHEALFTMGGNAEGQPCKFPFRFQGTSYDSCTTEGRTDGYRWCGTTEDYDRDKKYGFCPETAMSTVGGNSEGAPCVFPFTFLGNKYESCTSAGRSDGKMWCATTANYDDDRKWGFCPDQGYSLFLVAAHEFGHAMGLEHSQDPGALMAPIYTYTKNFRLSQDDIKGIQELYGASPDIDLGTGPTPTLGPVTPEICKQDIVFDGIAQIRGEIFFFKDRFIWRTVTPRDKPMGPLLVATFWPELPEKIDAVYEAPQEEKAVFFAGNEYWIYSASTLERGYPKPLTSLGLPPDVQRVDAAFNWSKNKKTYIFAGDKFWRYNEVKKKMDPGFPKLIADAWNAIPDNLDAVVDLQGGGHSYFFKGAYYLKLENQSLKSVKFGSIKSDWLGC
Dual specificity protein phosphatase 3, sequence (P51452 whole entry): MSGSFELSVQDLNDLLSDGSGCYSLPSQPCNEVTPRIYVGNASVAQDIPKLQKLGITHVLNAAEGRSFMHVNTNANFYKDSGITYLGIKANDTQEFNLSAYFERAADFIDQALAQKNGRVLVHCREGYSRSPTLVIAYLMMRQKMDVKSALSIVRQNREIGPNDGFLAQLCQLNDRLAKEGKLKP

In the case of `CCSc1ccc2c(c1)N(CCCN1CCN(C)CC1)c1ccccc1S2`, the AC50 [1] is reported as 1.09 µM (active), the CC50 [2] is reported as 16.3 µM (active) and the IC50 [3] is reported as > 20 µM (inactive). For the same compound, the IC50 [4] was 29.9 µM (inactive) and the AC50 [5] was 14.9 µM (active).

For `COc1ccc(OC)c(S(=O)(=O)N(C)CC(=O)N2CCc3ccccc3C2)c1`, the IC50 [6] was 8.07 µM (active), the IC50 [7] was 30.8 µM (active) and the IC50 [8] was 9.57 µM (active).

With `COc1cccc(CN2CCN(C(=O)c3ccco3)CC2)c1` the EC50 [9] was 92.5 µM (inactive) and the EC50 [10] was 1.16 µM (active).

With `CCN1CCN(C(=S)c2ccc(O)cc2)CC1` the IC50 [11] was > 67.6 µM (inactive), the IC50 [12] was 0.74 µM (active) and the IC50 [13] was > 80 µM (inactive). The IC50 [14] was 20.1 µM (inactive), the IC50 [15] was 45.1 µM (inactive) and the IC50 [16] was > 67.6 µM (inactive). The IC50 [17] was 0.712 µM (active).

For `Cc1cc(C)c(C#N)c(SCc2c(F)cccc2[N+](=O)[O-])n1`, the EC50 [18] was 3.82 µM (active).

In the case of `COc1ccc(NC(=O)CCn2c(=S)[nH]c3ccccc3c2=O)cc1Cl`, the IC50 [19] is reported as 4.32 µM (active), the IC50 [20] is reported as > 100 µM (inactive) and the IC50 [21] is reported as 68.3 µM (inactive). The IC50 [22] was 26.3 µM (active) and the IC50 [23] was 12 µM (active).

For `C[C@H]1CN([C@@H](C)CO)C(=O)c2cccc(NS(C)(=O)=O)c2O[C@H]1CN(C)Cc1ccc(Oc2ccccc2)cc1`, the AC50 [24] was < 0.003 µM (active) and the AC50 [25] was 0.003 µM (active).

With `O=C(c1ccoc1)N1CCN(c2cc(-c3ccccc3)nc3cc(-c4cccc(Cl)c4)nn23)CC1` the EC50 [26] was 9.03 µM (active) and the EC50 [27] was 1 µM (active).

For `C[C@H]1CN([C@@H](C)CO)C(=O)c2cccc(NC(=O)c3ccncc3)c2O[C@H]1CN(C)Cc1ccccc1`, the IC50 [28] was > 100 µM (inactive), the IC50 [29] was > 100 µM (inactive) and the IC50 [30] was 19.2 µM (inactive). The IC50 [31] was 51.5 µM (inactive), the IC50 [32] was 19.2 µM (inactive) and the AC50 [33] was 0.267 µM (active).
